We go through 1 sequence from US20250114430A1, “MODIFIED PEPTIDOMIMETICS AND METHODS OF USE” (The University of North Carolina at Chapel Hill, priority 2021, published 2025).

Series [1] deals with T1, Orai1 extracellular peptide 1 (OP1) (Homo sapiens, UniProt Q96D31).
T1 construct: corresponding to amino acids 106-119 ([…]
Briefly: Dynamic light scattering binding to Orai1 extracellular loop peptide OP1. The following applies: DLS, Orai1 amino acids 106-119. The source says:
(§1) Endogenous Orai1/store operated Ca^2+ influx have been extensively studied in HEK293T cells, so this cell type was used to understand ELD607-Orai1 interactions. […] Thapsigargin is a SERCA pump inhibitor that prevents uptake of cytosolic Ca^2+ into the endoplasmic reticulum. Thapsigargin is commonly used to stimulate Orai1/store operated Ca^2+ influx. […] Dynamic light scattering (DLS) was used to evaluate binding of ELD607 to peptides of Orai1 extracellular loops. […] Thus, it was concluded that ELD607 interacts with Orai1.

The subject of a further series is P. aeruginosa. Briefly: P. aeruginosa growth in the presence of peptide. In kind it is cell-based. The following applies: in vitro.
In series [2] the test system is E. coli lipopolysaccharide (LPS). Description: E. coli LPS acute respiratory distress syndrome (ARDS) model. It is filed as in vivo, mice. To be noted: 3 mg/kg LPS. The protocol: FIG. 34 panels B-D show lung injury score (FIG. 34 panel B), % weight loss (FIG. 34 panel C), and % BAL neutrophils (FIG. 34 […]) in relation to FIG. 34 panel A. Lung injury scoring system taken from Aeffner et al. Mouse Models of Acute Respiratory Distress Syndrome: A Review of Analytical Approaches, Pathologic Features, and Common Measurements. 2015 Tox Pathol.
ELD607 reduces inflammation in an acute respiratory distress syndrome (ARDS) model. Mice were intratracheally to 3 mg/kg E. coli lipopolysaccharide (LPS). 0.5 mg/kg ELD607 was instilled intranasally 1 or 6 h later. As a control, 3 mg/kg dexamethasone was given intranasally.

For a further series, the system named is E. coli LPS. Description: E. coli LPS sepsis model, intravenous ELD607. The following applies: LPS intraperitoneally. It is filed as in vivo, mice. Here is the method:
We injected mice intraperitoneally with E. coli LPS, followed by 0.5 mg/kg ELD607 injected intravenously 1 h later.

Series [3] deals with T2, human neutrophil elastase (Homo sapiens, UniProt P08246).
T2 sequence (P08246 30-267): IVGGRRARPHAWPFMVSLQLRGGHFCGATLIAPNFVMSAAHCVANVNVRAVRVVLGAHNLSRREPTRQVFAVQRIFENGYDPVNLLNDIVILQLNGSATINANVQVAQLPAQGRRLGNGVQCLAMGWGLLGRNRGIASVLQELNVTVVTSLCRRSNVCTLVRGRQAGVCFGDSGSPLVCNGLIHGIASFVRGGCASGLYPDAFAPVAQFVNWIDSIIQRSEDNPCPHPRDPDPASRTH
In kind it is in vitro ADME. The protocol:
Peptides were exposed to NE over time, and the reaction was stopped by addition of sivelestat. HPLC was then performed in order to determine peptide stability. N=3-4 replicates per time point.
HEK293T cells were plated and incubated for 2 hours with Fluo-4 plus or minus ELD peptides, with fluorescent images taken every 30 seconds for 2-6 minutes at excitation/emission wavelengths of 488/530 nm. […] Candidate peptides ELD604, 607, 601, and 100 were tested for resistance against protease degradation, wherein the peptides were incubated with neutrophil elastase, treated with the elastase inhibitor sivelestat at various timepoints to halt ongoing reactions, and then analyzed by HPLC (FIG. 9).
as §1

No end group written: not given here.

Regarding VHDIVNMLIRG [ELD607, VHDIVNMLIRG], the “interaction with OP1 (Z-average increase)” value in series [1] is reported as “significant interactions”. Also, in the series on P. aeruginosa, the P. aeruginosa growth result is “no effect on P. aeruginosa growth”. Also, in series [2] (0.5 mg/kg ELD607 intranasally), the BAL neutrophilia entry is “attenuated BAL neutrophilia” and the weight loss entry is “reduced weight loss”. Besides, the “lung damage (lung injury score)” value in series [2] (0.5 mg/kg ELD607 intranasally 1 or 6 h later) is listed as “significantly reduced lung damage caused by LPS”. Moreover, in the series with E. coli LPS (0.5 mg/kg intravenously), the blood macrophages entry is reported as “significantly increased blood macrophages” and the blood neutrophilia result is “significantly reduced blood neutrophilia”. In the series with E. coli LPS (0.5 mg/kg intravenously 1 h later), the weight loss entry is on record as “significant prevented weight loss”. Also, in series [3], the “stability against neutrophil elastase” value is listed as “significant increase in stability” and the “stability relative to a6 after exposure to human neutrophil elastase” value is listed as “four times more stable”.
